Structures are written as SMILES. Active and inactive are the calls of the source.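 Rule for the calls: active = compounds cutting yeast counts by over 60% at top dose, with positive span-based score; inactive = the rest.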

The series deals with S. cerevisiae growth, flow cytometry event count, 7 d. Briefly: S. cerevisiae cytotoxicity, flow cytometry event loss – powder samples, cytotoxicity control for yeast caloric restriction mimetic project, dose response (AID 504926). The settings on record: at 100 µM; stronger effect = higher value.
As for `CC(C)OC(=O)CSc1nnc(-c2ccc(Cl)cc2Cl)o1`, the event count decrease is 41% (inactive).

For the molecule `OCC[n+]1c2ccccc2nc2ccc(N3CCOCC3)cc21`, the event count decrease is 19% (inactive).

For the molecule `N#CC(c1nc2ccccc2nc1N1CCCC1)S(=O)(=O)c1ccccc1` (stereo not drawn), the event count decrease is 51% (inactive).

With `O=C(O)c1cnc2ccccc2n1`, the event count decrease is 7% (inactive).

For the molecule `O=C(Nc1cccc(Cl)c1)Nc1ccc2nccnc2c1`, the event count decrease is -73% (inactive).

Turning to `Cn1c(O)c(C(=Nc2ccc(F)cc2)c2ccccc2Cl)c(=O)n(C)c1=O`, the event count decrease is -114% (inactive).

As to `CC(C)(C)NC(=O)Nc1ccc2nccnc2c1`, the event count decrease is -56% (inactive).

Turning to `O=C(Nc1ccc2nccnc2c1)NC1CCCCC1`, the event count decrease is 8% (inactive).

For the molecule `CC(C)(C)n1nc(-c2ccc(Cl)cc2)c2c(N)ncnc21`, the event count decrease is -87% (inactive).

Take `CCC(=Nc1ccccc1O)C1=C(O)CC(c2ccccc2)CC1=O` (stereo not drawn): the event count decrease was -11% (inactive).

Take `Cc1ccc(-c2nn(C(C)(C)C)c3ncnc(N)c23)cc1`: the event count decrease was -42% (inactive).

In the case of `CCN(CC)C(=O)CSc1nnc(-c2cccc(OC)c2)o1`, the event count decrease was -66% (inactive).

For the molecule `CC(C)(C)Nc1ncnc2c1cnn2-c1ccccc1`, the event count decrease was 18% (inactive).

On to `c1ccc2[nH]c3cc4ncnc4cc3nc2c1`, for which the event count decrease was -129% (inactive).

Turning to `CCN(CC)c1ccc2nc3ccc(N)cc3[n+](-c3ccccc3)c2c1`, the event count decrease was -22% (inactive).

For the molecule `COc1ccc2c(c1)c1nnc(SC)nc1n2C`, the event count decrease was -72% (inactive).

Regarding `O=C(CN1CCN(c2ccccn2)CC1)Nc1ccccc1F`, the event count decrease was -51% (inactive).

For `FC(F)(F)c1nc2cc3nc4ccccc4[nH]c3cc2n1`, the event count decrease is -72% (inactive).

Turning to `CC(C)(C)n1nc(-c2ccc(F)cc2)c2c(N)ncnc21`, the event count decrease was -56% (inactive).

On to `O=C(c1ccc2nccnc2c1)N1CCN(c2ccccc2)CC1`, for which the event count decrease was -299% (inactive).

As for `O=C(c1cccc2nccnc12)N1CCOc2ccccc21`, the event count decrease was -51% (inactive).

With `[O-][n+]1c2ccccc2[n+]([O-])c2cc(O)ccc21`, the event count decrease is 15% (inactive).

With `Cc1cc(C)c2[nH]c3nc(SCC(=O)O)nnc3c2c1`, the event count decrease was 16% (inactive).

Turning to `C#CCSc1ccc(-c2ccc([N+](=O)[O-])cc2)o1`, the event count decrease is 21% (inactive).

Turning to `CC(C)CSc1nnc2c3ccccc3n(C)c2n1`, the event count decrease is -5% (inactive).

With `O=C1c2c(O)ccc(O)c2C(=O)c2c(NCCNCCO)ccc(NCCNCCO)c21`, the event count decrease is -180% (inactive).

For `CN(C)C(=O)c1ccc2nccnc2c1`, the event count decrease is -100% (inactive).

For the molecule `CC(=O)Nc1ccc2nc3ccccc3nc2c1`, the event count decrease was 43% (inactive).

Consider `Cn1c(=O)[nH]c2nncnc2c1=O`, for which the event count decrease was 24% (inactive).

With `C=CCSc1ccc(-c2ccc([N+](=O)[O-])cc2)o1`, the event count decrease is 40% (inactive).

As for `COc1ccc2cc(C3CC(c4ccco4)=NN3S(=O)(=O)c3ccccc3)c(Cl)nc2c1` (stereo not drawn), the event count decrease is 26% (inactive).

As for `CCCCCNC(=O)C(=O)C1C(=O)Nc2ccccc21` (stereo not drawn), the event count decrease was 66%.

For `O=C(c1ccc2nccnc2c1)N1CCCCC1`, the event count decrease is -141% (inactive).

`C[C@@]12C(=O)OC(=O)[C@]1(C)C1CCC2O1`: the event count decrease was 88%.

For the molecule `c1ccc2nc3ccccc3nc2c1`, the event count decrease is 41% (inactive).

In the case of `N#CCc1nn(-c2ccccc2)c2ncnc(N)c12`, the event count decrease is 31% (inactive).

As to `Cc1ccccc1NC(=O)c1cccc2nc3ccccc3nc12`, the event count decrease was -36% (inactive).

`COc1ccc2nc3ccccc3[n+]([O-])c2c1`: the event count decrease was 41% (inactive).

As for `C=CCOn1c(=O)c(-c2cccs2)[n+]([O-])c2ccccc21`, the event count decrease is -43% (inactive).

Turning to `CN1CCN(C(=O)c2ccc3nccnc3c2)CC1`, the event count decrease is -332% (inactive).

On to `O=C(Nc1ccc2nccnc2c1)N1CCN(c2ccccc2)CC1`, for which the event count decrease was -25% (inactive).

For `O=C(/C=C/c1cccs1)NC(=S)NNC(=O)Cc1cccs1`, the event count decrease was 81%.

With `C[n+]1c2ccccc2nc2ccc(NCCO)cc21`, the event count decrease was 56% (inactive).

Consider `COc1cccc2nc3cc(C)c(C)cc3nc12`, for which the event count decrease is 56% (inactive).

Consider `CCn1c2ccccc2c2n[nH]c(=S)nc21`, for which the event count decrease was -35% (inactive).

Take `O=C(c1cccc2nccnc12)N1CCN(c2ccccc2F)CC1`: the event count decrease is 55% (inactive).

On to `CC(C)OC(=O)c1ccc2nc3ccccc3nc2c1`, for which the event count decrease was 4% (inactive).

As for `Nc1cc2nc3ccccc3nc2cc1N`, the event count decrease is -45% (inactive).

Consider `O=C(/C=C/c1ccccc1)NC(=S)NNC(=O)Cc1cccs1`, for which the event count decrease is 57% (inactive).

On to `Cc1cc2nc3ccc(N(C)C)cc3nc2cc1N`, for which the event count decrease was -28% (inactive).

On to `Oc1cccc2nc3ccccc3nc12`, for which the event count decrease was 69%.

Regarding `CN(C)CCNc1ncnc2c1cnn2-c1ccc(Cl)cc1`, the event count decrease is 19% (inactive).

For `CCc1nc(NC(C)(C)C)c2cnn(-c3ccccc3)c2n1`, the event count decrease was 52% (inactive).

On to `O=C(Nc1cccc2nccnc12)c1ccccc1`, for which the event count decrease was 16% (inactive).

Turning to `COc1ccc2nc3ccccc3nc2c1`, the event count decrease is 35% (inactive).

`O=C(Nc1ccc2nccnc2c1)N1CCOCC1`: the event count decrease was -21% (inactive).

Regarding `O=C(OCc1c(F)cccc1Cl)c1cnc2ccccc2n1`, the event count decrease is 53% (inactive).

Regarding `O=C(NCc1ccccc1)c1ccc2nccnc2c1`, the event count decrease was 80% (inactive).

Take `O=C(Nc1ccc2nccnc2c1)c1cccc2nccnc12`: the event count decrease was 95% (inactive).

Turning to `O=C(O)c1ccc2nccnc2c1`, the event count decrease was 47% (inactive).

On to `O=C(c1cccc2nc3ccccc3nc12)N1CCOCC1`, for which the event count decrease was -106% (inactive).

Consider `CSc1nnc(-c2ccc([N+](=O)[O-])cc2)o1`, for which the event count decrease was 44% (inactive).

As to `COc1ccc2nc3ccccc3nc2c1NC(=O)c1ccccc1Cl`, the event count decrease is 43% (inactive).

For the molecule `O=C(O)c1cccc2nccnc12`, the event count decrease was -180% (inactive).

In the case of `O=C(Nc1ccccc1)c1ccc2nccnc2c1`, the event count decrease is -494% (inactive).

In the case of `COc1ccc2nc3ccccc3nc2c1N`, the event count decrease was -32% (inactive).

Turning to `Nc1ccc2nccnc2c1`, the event count decrease is -19% (inactive).

With `CNc1ccc2nc3ccccc3[n+](C)c2c1`, the event count decrease was 45% (inactive).

For the molecule `Cc1cc(C)cc(NC(=O)CN2CCN(c3ccccn3)CC2)c1`, the event count decrease is 2% (inactive).

Consider `O=C(Nc1ccc2nc3ccccc3nc2c1)c1ccc(Br)cc1`, for which the event count decrease was 68% (inactive).

Regarding `O=c1[nH]c(O)c(C=Nc2ccc(F)c(Cl)c2)c(=O)[nH]1`, the event count decrease is 27% (inactive).

For the molecule `CCN(CC)C(=O)c1ccc2nc3ccccc3nc2c1`, the event count decrease was -99% (inactive).

Regarding `CCN(CC)C(=O)c1cccc2nc3ccccc3nc12`, the event count decrease is -36% (inactive).

(Values after PubChem BioAssay AID504926 (NMMLSC, 2011).)
